Records with an inconclusive call do not appear.
system: C2C12 myotubes + simvastatin, ATP luminescence, 48 h; experiment: suppressors of statin myotoxicity in myotubes, dose response, cell-based, C2C12 myotubes, ATP luminescence, cherry pick (AID 624405);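 also: myotubes are challenged with simvastatin at 10 µM to lower ATP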

**Q.** How did the AC40 turn out when `C=CCn1c(=O)c2c(nc3n2CC(C)CN3c2cccc(OC)c2)n(C)c1=O` (stereo unspecified) was run?
**A.** 10.5 µM

**Q.** `COc1ccc(S(=O)(=O)N(C)C[C@@H]2Oc3ccc(NS(=O)(=O)c4ccc(Cl)cc4)cc3CC(=O)N([C@@H](C)CO)C[C@H]2C)cc1` was tested. Which AC40 did it give?
**A.** 11.8 µM

**Q.** Which AC40 does the source give for `O=C(CN1CCC(c2nc3ccccc3s2)CC1)NCc1ccccc1` here?
**A.** 19.3 µM

**Q.** How did the AC40 turn out when `C[C@@H]1CN([C@H](C)CO)C(=O)Cc2cc(NC(=O)CCCCCC(=O)Nc3ccccc3N)ccc2O[C@@H]1CN(C)Cc1ccccc1` was run?
**A.** 14.4 µM

**Q.** With `COc1ccc(S(=O)(=O)Nc2ccc3c(c2)C(=O)N([C@@H](C)CO)C[C@H](C)[C@H](CN(C)S(=O)(=O)c2ccc(F)cc2)OCCCC[C@@H](C)O3)cc1` as the molecule, how does the AC40 read?
**A.** 17.7 µM

**Q.** How did the AC40 turn out when `Cc1cccc(C(=O)Nc2cc(OCc3cccc(F)c3)c(Cl)cc2Cl)c1` was run?
**A.** 15.9 µM

**Q.** Which AC40 does the source give for `C[C@@H]1CN([C@@H](C)CO)C(=O)Cc2cc(NC(=O)CCCCCC(=O)Nc3ccccc3N)ccc2O[C@H]1CN(C)Cc1ccccc1` here?
**A.** 12.2 µM

**Q.** How did the AC40 turn out when `Cc1cc(C(=O)COC(=O)C2=NNC(=O)CC2)c(C)n1-c1ccccc1` was run?
**A.** 11.7 µM

**Q.** `Cc1ccc(S(=O)(=O)Nc2ccc3c(c2)CC(=O)N([C@@H](C)CO)C[C@H](C)[C@@H](CN(C)Cc2ccc(-c4ccccc4)cc2)O3)cc1` was tested. Which AC40 did it give?
**A.** 18.9 µM

**Q.** With `C[C@H](CO)N1C[C@H](C)[C@H](CN(C)Cc2ccccc2)Oc2ccc(NC(=O)CCCCCC(=O)Nc3ccccc3N)cc2CC1=O` as the molecule, how does the AC40 read?
**A.** 10.1 µM

**Q.** How did the AC40 turn out when `CCn1c(CNc2ccc(F)cc2)nnc1SCC(=O)Nc1ccc(OC)cc1` was run?
**A.** 5.81 µM

**Q.** How did the AC40 turn out when `O=C(CN1CCN(c2nc(-c3ccccc3)cs2)CC1)NCc1ccc2c(c1)OCO2` was run?
**A.** 10 µM

**Q.** How did the AC40 turn out when `C[C@H](CO)N1C[C@H](C)[C@H](CN(C)C(=O)Nc2ccc(F)cc2)Oc2ncc(C#Cc3ccc(C(F)(F)F)cc3)cc2C1=O` was run?
**A.** 13.5 µM

**Q.** For `O=S(=O)(Nc1nc2c(s1)CCCC2)c1ccc2ccccc2c1`, which AC40 is on record?
**A.** 5.94 µM

**Q.** With `C[C@@H]1CN([C@@H](C)CO)C(=O)c2cc(NS(=O)(=O)c3ccc(Cl)cc3)ccc2O[C@H]1CN(C)C(=O)Nc1cccc2ccccc12` as the molecule, how does the AC40 read?
**A.** 9.49 µM

**Q.** Which AC40 does the source give for `C[C@@H]1CN([C@H](C)CO)C(=O)c2cc(NC(=O)Cc3cn(C)c4ccccc34)ccc2O[C@@H]1CN(C)Cc1ccc(C(=O)Nc2ccccc2N)cc1` here?
**A.** 9.69 µM

**Q.** For `Cc1ccc(C)c(NC(=O)C2CC3c4ccccc4C2c2ccccc23)c1` (stereo unspecified), which AC40 is on record?
**A.** 3.1 µM

**Q.** How did the AC40 turn out when `Fc1ccc(C2=Nn3c(nnc3-c3n[nH]c4c3CCC4)SC2)cc1` was run?
**A.** 1.23 µM

**Q.** `C=CCOc1ccc(Br)cc1/C=N/O` was tested. Which AC40 did it give?
**A.** 17.9 µM

**Q.** With `COc1ccc(N(Cc2cc3ccccc3[nH]c2=O)S(=O)(=O)c2ccccc2)cc1` as the molecule, how does the AC40 read?
**A.** 5.81 µM

**Q.** How did the AC40 turn out when `COc1ccc(CC2NCC(O)C2OC(C)=O)cc1` (stereo unspecified) was run?
**A.** 0.275 µM

**Q.** How did the AC40 turn out when `O=C(c1cccc(Cl)c1)c1nn(-c2ccccc2)c(=O)cc1C(F)(F)F` was run?
**A.** 4.99 µM

**Q.** `C[C@H](CO)N1C[C@H](C)[C@@H](CN(C)Cc2ccc(Cl)c(Cl)c2)Oc2ccc(NC(=O)Cc3cn(C)c4ccccc34)cc2CC1=O` was tested. Which AC40 did it give?
**A.** 7.35 µM

**Q.** With `CCSc1nnc(NC(=O)c2c(-c3ccccc3Cl)noc2C)s1` as the molecule, how does the AC40 read?
**A.** 13.9 µM

**Q.** For `CCCNC(=O)Cc1c(O)c2ccccc2[nH]c1=O`, which AC40 is on record?
**A.** 18.6 µM

**Q.** `Cc1nc(-c2cccc(S(=O)(=O)N3CC(C)OC(C)C3)c2)cs1` (stereo unspecified) was tested. Which AC40 did it give?
**A.** 18.3 µM

**Q.** With `O=C(Nc1ccc(S(=O)(=O)N2CCCCC2)cc1)C1CCN(C(=O)c2ccco2)CC1` as the molecule, how does the AC40 read?
**A.** 5.15 µM

**Q.** How did the AC40 turn out when `CCOc1c(S(=O)(=O)N2CCCC2)ccc(Cl)c1Cl` was run?
**A.** 5.43 µM

**Q.** With `C[C@H](CO)N1C[C@H](C)[C@@H](CN(C)Cc2ccc(Cl)c(Cl)c2)Oc2ccc(NC(=O)C3CCCCC3)cc2CC1=O` as the molecule, how does the AC40 read?
**A.** 17.4 µM

**Q.** How did the AC40 turn out when `O=C1C[C@@H]2c3c(cccc3CN1Cc1ccccc1F)C[C@@H](O)[C@H]2O` was run?
**A.** 17.2 µM

**Q.** `Cc1nn(Cc2ccccc2Cl)c2sc(C(=O)NCc3ccc4c(c3)OCO4)cc12` was tested. Which AC40 did it give?
**A.** 12.5 µM

**Q.** With `N#Cc1nc(-c2ccco2)oc1N1CCCC1` as the molecule, how does the AC40 read?
**A.** 0.199 µM

**Q.** For `Cc1noc(C)c1S(=O)(=O)Nc1ccc2c(c1)CC(=O)N([C@H](C)CO)C[C@@H](C)[C@@H](CN(C)Cc1ccc(-c3ccccc3)cc1)O2`, which AC40 is on record?
**A.** 3.64 µM

**Q.** With `Cc1ccc(C2OC(=O)c3ccccc32)cc1` (stereo unspecified) as the molecule, how does the AC40 read?
**A.** 2.21 µM

**Q.** Which AC40 does the source give for `COc1ccc(CN2[C@H](CO)[C@H]3c4ccccc4NC[C@H]32)cc1` here?
**A.** 17.8 µM

**Q.** For `C[C@H](CO)N1C[C@H](C)[C@@H](CN(C)Cc2ccc(C(=O)Nc3ccccc3N)cc2)Oc2ccc(NC(=O)Nc3ccc4c(c3)OCO4)cc2CC1=O`, which AC40 is on record?
**A.** 11.7 µM

**Q.** For `Cc1[nH]nc2c1C1(C(=O)N(Cc3ccc(Cl)cc3)c3ccccc31)C(C#N)=C(N)O2` (stereo unspecified), which AC40 is on record?
**A.** 4.72 µM

**Q.** Which AC40 does the source give for `Oc1[nH]c2ccccc2c1C=Nc1ccc2c(c1)OCO2` here?
**A.** 1.99 µM

**Q.** Which AC40 does the source give for `C[C@H](CO)N1C[C@H](C)[C@@H](CN(C)Cc2ccc(Cl)c(Cl)c2)Oc2ccc(NS(C)(=O)=O)cc2CC1=O` here?
**A.** 9.83 µM

**Q.** With `COc1ccc(C(=O)Nc2ccccc2N2CCOCC2)cc1Br` as the molecule, how does the AC40 read?
**A.** 12.1 µM

**Q.** With `C[C@H]1CN([C@@H](C)CO)C(=O)c2cccc(NC(=O)Nc3ccc(C(F)(F)F)cc3)c2O[C@H]1CN(C)CC1CCCCC1` as the molecule, how does the AC40 read?
**A.** 19.1 µM

**Q.** How did the AC40 turn out when `C[C@@H]1CN([C@@H](C)CO)C(=O)Cc2cc(NC(=O)CCCCCC(=O)Nc3ccccc3N)ccc2O[C@@H]1CN(C)CC1CCCCC1` was run?
**A.** 7.13 µM

**Q.** Which AC40 does the source give for `COC(=O)c1cc(=O)n(CCc2ccccc2F)c(=Nc2ccc(F)c(Cl)c2)s1` here?
**A.** 2.81 µM

**Q.** With `COc1ccc2c(Cl)c(-c3nnc(SCC(=O)c4ccccc4)n3C)sc2c1` as the molecule, how does the AC40 read?
**A.** 1.13 µM

**Q.** For `CCn1c(-c2ccc(-c3ccccc3)cc2)c[nH]c1=S`, which AC40 is on record?
**A.** 3.72 µM

**Q.** Which AC40 does the source give for `C[C@@H]1CN([C@@H](C)CO)C(=O)c2cccc(NC(=O)Nc3ccc4c(c3)OCO4)c2O[C@H]1CN(C)Cc1ccc(C(=O)Nc2ccccc2N)cc1` here?
**A.** 9.42 µM
